Laboratory results published in the supplement of paper PMC10307832.

Legend:
Test in all cases: relative viability (nuclei count vs DMSO), 5 days (fraction); higher = more cells survive
[1] = compound: C[As](C)SC[C@H](NC(=O)CC[C@H](N)C(=O)O)C(=O)NCC(=O)O [Darinaparsin] + Nc1ncn([C@H]2C[C@H](O)[C@@H](CO)O2)c(=O)n1 [Decitabine] (partner 2 µM)
How it was run: (§1)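 One day after seeding in 1536-well plates, lung cancer cell lines were dosed by pin tool. Dosing was either single-drug or a fixed anchor-drug dose plus five library-drug doses (not always all listed) in √10 steps. After 5 days, nuclei were stained in one fix-and-stain step and counted on 4× images, and relative viability is the nuclei count of treated wells over that of vehicle wells, given as the median of duplicate plates.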

[2] = compound: C[As](C)SC[C@H](NC(=O)CC[C@H](N)C(=O)O)C(=O)NCC(=O)O [Darinaparsin] + Cc1cc(Nc2cc(N3CCN(C)CC3)nc(Sc3ccc(NC(=O)C4CC4)cc3)n2)n[nH]1 [Tozasertib] (partner 0.1 µM)
How it was run: as §1

AZ628 + Pemetrexed = compound: CC1=C(C=C(C=C1)NC(=O)C2=CC(=CC=C2)C(C)(C)C#N)NC3=CC4=C(C=C3)N=CN(C4=O)C [AZ628] + Nc1nc2[nH]cc(CCc3ccc(C(=O)N[C@@H](CCC(=O)O)C(=O)O)cc3)c2c(=O)[nH]1 [Pemetrexed] (partner 0.2 µM)
How it was run: as §1

QS11 + Foretinib = compound: C1CC2=C(C1)C=C(C=C2)OC3=NC(=C4C(=N3)N(C=N4)CC5=CC=C(C=C5)C6=CC=CC=C6)N[C@@H](CC7=CC=CC=C7)CO [QS11] + COc1cc2c(Oc3ccc(NC(=O)C4(C(=O)Nc5ccc(F)cc5)CC4)cc3F)ccnc2cc1OCCCN1CCOCC1 [Foretinib] (partner 0.25 µM)
How it was run: as §1

| Cell Line | relative viability ([1]; first compound 0.08 µM) | relative viability ([1]; first compound 0.8 µM) | relative viability ([1]; first compound 2.53 µM) | relative viability ([1]; first compound 8 µM) | relative viability ([2]; first compound 0.08 µM) | relative viability ([2]; first compound 0.8 µM) | relative viability ([2]; first compound 2.53 µM) | relative viability ([2]; first compound 8 µM) | relative viability (AZ628 + Pemetrexed; first compound 0.08 µM) | relative viability (AZ628 + Pemetrexed; first compound 0.253 µM) | relative viability (AZ628 + Pemetrexed; first compound 0.8 µM) | relative viability (AZ628 + Pemetrexed; first compound 2.53 µM) | relative viability (AZ628 + Pemetrexed; first compound 8 µM) | relative viability (QS11 + Foretinib; first compound 0.08 µM) | relative viability (QS11 + Foretinib; first compound 0.253 µM) | relative viability (QS11 + Foretinib; first compound 0.8 µM) | relative viability (QS11 + Foretinib; first compound 2.53 µM) | relative viability (QS11 + Foretinib; first compound 8 µM) |
| --- | --- | --- | --- | --- | --- | --- | --- | --- | --- | --- | --- | --- | --- | --- | --- | --- | --- | --- |
| COR-L 105 | 0.642 | 0.711 | 0.621 | 0.666 | 0.316 | 0.369 | 0.315 | 0.32 | 1.35 | 1.03 | 1.18 | 1.16 | 1.03 | 1.08 | 1.25 | 0.924 | 0.991 | 0.992 |
| BEN | 0.724 | 0.72 | 0.812 | 0.811 | 0.489 | 0.498 | 0.463 | 0.444 | 0.776 | 0.614 | 0.737 | 0.716 | 0.749 | 0.47 | 0.616 | 0.814 | 0.691 | 0.701 |
| NCI-H520 | 0.528 | 0.55 | 0.472 | 0.552 | 0.468 | 0.369 | 0.348 | 0.409 | 0.669 | 0.596 | 0.67 | 0.707 | 0.286 | 0.703 | 1.08 | 1.12 | 0.792 | 0.867 |
| ChaGo-K-1 | 0.464 | 0.499 | 0.506 | 0.577 | 0.266 | 0.206 | 0.242 | 0.232 | 0.27 | 0.277 | 0.262 | 0.298 | 0.243 | 0.816 | 0.967 | 0.971 | 0.99 | 0.895 |
| NCI-H2405 | 0.802 | 0.716 | 0.663 | 0.735 | 0.777 | 0.776 | 0.703 | 0.889 | 0.839 | 0.698 | 0.673 | 0.632 | 0.624 | 1 | 0.986 | 1 | 1.08 | 1.16 |
| NCI-H2087 | 0.322 | 0.286 | 0.28 | 0.282 | 0.243 | 0.246 | 0.254 | 0.22 | 0.671 | 0.632 | 0.604 | 0.501 | 0.281 | 1.07 | 1.15 | – | 1.15 | 1.06 |
| NCI-H460 | 0.749 | 0.496 | 0.461 | 0.59 | 0.735 | 0.438 | 0.326 | 0.792 | 0.0707 | 0.055 | 0.0564 | 0.0595 | 0.0641 | 1.07 | 0.939 | 0.731 | 1.05 | 0.626 |
| LCLC-103H | 0.788 | 0.722 | 0.715 | 0.8 | 0.491 | 0.517 | 0.507 | 0.441 | 0.423 | 0.464 | 0.445 | 0.437 | 0.402 | 0.526 | 0.883 | 0.672 | 0.7 | 0.784 |
| NCI-H1650 | 0.325 | 0.41 | 0.397 | 0.359 | 0.473 | 0.325 | 0.417 | 0.394 | 0.403 | 0.386 | 0.419 | 0.431 | 0.38 | 1 | 1.25 | 0.799 | 1.14 | 1.19 |
| NCI-H441 | 0.255 | 0.21 | 0.245 | 0.19 | 0.839 | 0.673 | 0.72 | 0.539 | 0.279 | 0.252 | 0.235 | 0.263 | 0.26 | 1.01 | 1.19 | 0.97 | 0.775 | 0.746 |
